Experimental data from publication PMC9138991, “Effect of Trimethine Cyanine Dye- and Folate-Conjugation on the In Vitro Biological Activity of Proapoptotic Peptides” (Biomolecules, 2022).
Where a SMILES comes first, the peptide text is derived from it. [ ]: non-standard residue; d: D form. The star is where a group is joined. X1 = CN1/C(=C\C=C\C2=[N+](CCCCCC(=O)*)c3ccccc3C2(C)C)C(C)(C)c2ccccc21; Cha = N[C@@H](CC1CCCCC1)C(=O)O; dCha = N[C@H](CC1CCCCC1)C(=O)O

Experiments:
Type in all cases: cell-based, human
KB cells = experiment: Cell viability assay (CellTiter-Blue), KB cells; conditions: 7 × 10^3 cells per well, folic acid-depleted RPMI-1640 + 10% FBS, 1% DMSO, 24 h at 37 °C, then CellTiter-Blue 4 h, three biological replicates fitted in Origin, standard error in brackets
Description: (§1) KB and MCF7 cells were kindly gifted by Prof. Arwyn T. Jones (Cardiff University), HEK293 cells were purchased from Public Health England, and SK-OV-3 cells were purchased from National Collection of Authenticated Cell Cultures (https://cell-bank.org.cn/). Cells were routinely tested for mycoplasma infection. KB and SK-OV-3 cells were maintained in T75 flasks at 37 °C in a 5% CO2 atmosphere in folic acid-depleted Roswell Park Memorial Institute (RPMI)-1640 medium supplemented with 10% (v/v) fetal bovine serum (FBS). MCF7 and HEK293 cells were maintained in T75 flasks at 37 °C in a 5% CO2 atmosphere in Dulbecco’s Modified Eagle’s medium (DMEM) supplemented with 10% (v/v) FBS. Cells were maintained at a sub-confluent monolayer and split at 80–85% confluency. For splitting, cells were washed with PBS, trypsinized in 1 mL of trypsin, and 200 µL of the 1000 µL trypsin cell suspension was re-suspended in 12 mL fresh DMEM containing 10% (v/v) FBS in a new T75 flask. KB and SK-OV-3 cells were used for biological experiments after being maintained for at least 10 days in folic acid-depleted RPMI-1640 medium.
(§2) SK-OV-3, MCF7, and HEK293 cells were seeded at a density of 2 × 10^4 cells per well in a Nunc™ MicroWell™ 96-well plate and grown at 37 °C in a 5% CO2 atmosphere in DMEM supplemented with 10% (v/v) FBS for 24 h. KB cells were seeded at a density of 7 × 10^3 cells per well in a 96-well plate and grown at 37 °C in a 5% CO2 atmosphere in folic acid-depleted RPMI-1640 medium supplemented with 10% (v/v) FBS for 24 h. Stock solutions of compounds 2–6 and 11–13 were obtained by dissolving the compounds in sterile deionized water. Compounds 1, and 7–10 were dissolved in pure DMSO. The stock solutions were diluted into the proper medium (according to the cell line tested) supplemented with 10% FBS to the appropriate concentration, and cells in each well were incubated with 100 µL of the solution. The solutions in each well were then adjusted to a concentration of 1% (v/v) DMSO. After 24 h at 37 °C, 20 µL of CellTiter-Blue™ was added to each well. The plate was incubated for another 4 h at 37 °C before analysis on a Perkin Elmer Victor X plate reader (excitation 531 nm; emission 595 nm). Each data point was calculated from a minimum of nine values resulting from three biological replicates (i.e., cells split from three different passages); each biological replicate is calculated from three technical replicates (i.e., cells split from the same passage). Value from media-only with CellTiter-Blue™ was set at 0% viability. This value was then subtracted from the values from cell-only (i.e., non-treated) wells with CellTiter-Blue™ in each biological replicate and set as 100% viability. For treatments of Cy3-containing compounds, blanks were generated with cell-free wells containing the compounds incubated for 24 h before addition of CellTiter-Blue™. The fluorescent reading for these wells was deducted from the treatment readings. Dose-response fitting curves were generated using Origin, version 2019b, OriginLab Corporation, Northampton, MA, USA (Figures S21–S24, Supplementary Materials).
(§3) Comparison of cytotoxicity fitting curves was achieved by applying the extra sum-of-squares F test, performed using GraphPad Prism version 9 for Windows, GraphPad Software, La Jolla, California, USA (https://www.graphpad.com/). […] Statistical analysis on the flow cytometry data was achieved by applying the unpaired two-tailed t-test test, performed using GraphPad Prism version 9 for Windows, GraphPad Software, La Jolla California USA, USA (https://www.graphpad.com/).
(§4) Cytotoxicity of 1–13 was evaluated using the CellTiter-Blue assay on KB, MCF7, SK-OV-3, and HEK293 cells. KB cells are derived from human cervical cancer, while SK-OV-3 cells are derived from human ovarian cancer. […] This feature is of particular relevance in anticancer applications, as it can be exploited for selective targeting and delivery. […]

[1] = tested on: mitochondria of SK-OV-3 cells; experiment: Confocal microscopy, colocalisation with MitoTracker Green FM, SK-OV-3 cells; conditions: 10 µM conjugate, 10 min at 37 °C; for Pearson's correlation coefficient of MitoTracker Green and Cy3 fluorescence: imaged at 20X; for Pearson's correlation coefficient of MitoTracker Green FM and Cy3 fluorescence: imaged at 63X
Description: (§5) SK-OV-3 and MCF7 were seeded at a density of 1 × 10^6 cells per well in glass-bottom culture dishes and grown at 37 °C in a 5% CO2 atmosphere in medium supplemented with 10% (v/v) FBS for 24 h. Cells were washed once with the RPMI-1640 medium supplemented with 10% (v/v) FBS before staining. Compounds 1, 5–10 were diluted into the RPMI-1640 medium supplemented with 10% (v/v) FBS to 10 μM and then added to the culture dishes, respectively. After 10-min incubation at 37 °C, cells were washed with RPMI-1640 medium supplemented with 10% (v/v) FBS. Cells were then treated with 50 nM MitoTracker Green FM and 10 μg/mL Hoechst33258 pre-formulated with RPMI-1640 medium supplemented with 10% (v/v) FBS and then incubated for another 10 min at 37 °C before analysis on ZEISS LSM 900 with Airyscan 2. The results were analyzed using Image J software (Figure 3 and Figures S4–S7 in Supplementary Materials).
(§6) Figure 3 Confocal microscopy images of SK-OV-3 and MCF7 cells treated with Cy3-containing conjugates. Cells were treated with 10 µM of the indicated conjugate for 10 min at 37 °C, washed, stained with 50 nM MitoTracker Green FM and 10 μg/mL Hoechst33258 for 10 min at 37 °C, washed, and imaged at 63X. Pearson’s correlation coefficients of MitoTracker Green FM and Cy3 fluorescence for compounds 1, 5, 6, 7, 8, 9, and 10 in SK-OV-3 and MCF cells are 0.75/0.64, 0.73/0.81, 0.91/0.61, 0.78/0.63, 0.85/0.69, 0.43/0.82, and 0.78/0.60, respectively. Excitation wavelengths for Hoechst33258, MitoTracker Green FM and Cy3 were set as 405, 488, and 561 nm, respectively. Scale bars denote 25 μm. Additional images, including the results of Hoechst33258 staining, are shown in Figure S4 (SK-OV-3 at 20X), Figure S5 (SK-OV-3 at 63X), Figure S6 (MCF7 at 20X) and Figure S7 (MCF7 at 63X), Supplementary Materials.

MCF7 cells = experiment: Cell viability assay (CellTiter-Blue), MCF7 cells; conditions: MCF7 cells, 2 × 10^4 cells per well, DMEM + 10% FBS, 1% DMSO, 24 h at 37 °C, then CellTiter-Blue 4 h; three biological replicates fitted in Origin, standard error in brackets
Description: as §1, §2, §3, §4

[2] = tested on: mitochondria of MCF7 cells; experiment: Confocal microscopy, colocalisation with MitoTracker Green FM, MCF7 cells; conditions: 10 µM conjugate, 10 min at 37 °C; for Pearson's correlation coefficient of MitoTracker Green and Cy3 fluorescence: imaged at 20X; for Pearson's correlation coefficient of MitoTracker Green FM and Cy3 fluorescence: imaged at 63X
Description: as §5, §6

HEK293 cells = experiment: Cell viability assay (CellTiter-Blue), HEK293 cells; conditions: 2 × 10^4 cells per well, DMEM + 10% FBS, 1% DMSO, 24 h at 37 °C, then CellTiter-Blue 4 h, three biological replicates fitted in Origin, standard error in brackets
Description: as §1, §2, §3, §4

SK-OV-3 cells = experiment: Cell viability assay (CellTiter-Blue), SK-OV-3 cells; conditions: 2 × 10^4 cells per well, medium + 10% FBS, 1% DMSO, 24 h at 37 °C, then CellTiter-Blue 4 h, three biological replicates fitted in Origin, standard error in brackets
Description: as §1, §2, §3, §4

SMILES	EC50 (KB cells) [µM]	Pearson's correlation coefficient of MitoTracker Green and Cy3 fluorescence [1]	Pearson's correlation coefficient of MitoTracker Green FM and Cy3 fluorescence [1]	EC50 (MCF7 cells) [µM]	Pearson's correlation coefficient of MitoTracker Green and Cy3 fluorescence [2]	Pearson's correlation coefficient of MitoTracker Green FM and Cy3 fluorescence [2]	EC50 (HEK293 cells) [µM]	EC50 (SK-OV-3 cells) [µM]
C[C@@H](NC(=O)[C@H](CC1CCCCC1)NC(=O)[C@@H](CCCCN)NC(=O)[C@@H](C)NC(=O)[C@@H](CC1CCCCC1)NC(=O)[C@@H](CCCCN)NC(=O)CCCCC[N+]1=C(/C=C/C=C2\N(C)c3ccccc3C2(C)C)C(C)(C)c2ccccc21)C(=O)N[C@H](CCCCN)C(=O)N[C@H](CCCCN)C(=O)N[C@@H](CC1CCCCC1)C(=O)N[C@H](C)C(=O)N[C@H](CCCCN)C(=O)N[C@H](CC1CCCCC1)C(=O)N[C@H](C)C(=O)N[C@H](CCCCN)C(N)=O [Compound 7] (X1-[dK][dCha][dA][dK][Cha][dA][dK][dK][Cha][dA][dK][dCha][dA][dK]-NH2)	5.5	0.74	0.78	11.6	0.52	0.63	8.2	23
CC(C)C[C@H](NC(=O)[C@H](CCCCN)NC(=O)CCCCC[N+]1=C(/C=C/C=C2\N(C)c3ccccc3C2(C)C)C(C)(C)c2ccccc21)C(=O)N[C@@H](C)C(=O)N[C@@H](CCCCN)C(=O)N[C@@H](CC(C)C)C(=O)N[C@@H](C)C(=O)N[C@@H](CCCCN)C(=O)N[C@@H](CCCCN)C(=O)N[C@@H](CC(C)C)C(=O)N[C@@H](C)C(=O)N[C@@H](CCCCN)C(=O)N[C@@H](CC(C)C)C(=O)N[C@@H](C)C(=O)N[C@@H](CCCCN)C(N)=O [Compound 5]	6.7	0.76	0.73	7.37	0.80	0.81	44.3	11
CC(C)C[C@@H](NC(=O)[C@@H](CCCCN)NC(=O)[C@H](CCCCNC(=O)[C@H](CCC(=O)O)NC(=O)c1ccc(NCc2cnc3nc(N)nc(O)c3n2)cc1)NC(=O)CCCCC[N+]1=C(/C=C/C=C2\N(C)c3ccccc3C2(C)C)C(C)(C)c2ccccc21)C(=O)N[C@H](C)C(=O)N[C@H](CCCCN)C(=O)N[C@H](CC(C)C)C(=O)N[C@H](C)C(=O)N[C@H](CCCCN)C(=O)N[C@H](CCCCN)C(=O)N[C@H](CC(C)C)C(=O)N[C@H](C)C(=O)N[C@H](CCCCN)C(=O)N[C@H](CC(C)C)C(=O)N[C@H](C)C(=O)N[C@H](CCCCN)C(N)=O [Compound 9]	22.4	0.52	0.43	13.2	0.61	0.82	6.9	8
CC(C)C[C@H](NC(=O)[C@H](CCCCN)NC(=O)[C@H](C)NC(=O)[C@H](CC(C)C)NC(=O)[C@H](CCCCN)NC(=O)[C@H](CCCCN)NC(=O)[C@H](C)NC(=O)[C@H](CC(C)C)NC(=O)[C@H](CCCCN)NC(=O)[C@H](C)NC(=O)[C@H](CC(C)C)NC(=O)[C@H](CCCCN)NC(=O)[C@H](CCCCNC(=O)[C@H](CCC(=O)O)NC(=O)c1ccc(NCc2cnc3nc(N)nc(O)c3n2)cc1)NC(=O)CCCCC[N+]1=C(/C=C/C=C2\N(C)c3ccccc3C2(C)C)C(C)(C)c2ccccc21)C(=O)N[C@@H](C)C(=O)N[C@@H](CCCCN)C(N)=O [Compound 8]	38.8	0.53	0.85	49.4	0.60	0.69	35.6	8.8
